Each structure is given as a SMILES string.

This assay concerns the target LTC4S (Homo sapiens (Human), UniProt Q16873). In words: Human whole blood HTRF assay (LTC4 release after calcium ionophore A23187). The class given is cell-based. Conditions: human whole blood diluted 1:3, 4 h incubation, calcium ionophore A23187 stimulation, LTC4 by HTRF; read-out: human whole blood HTRF IC50. On the procedure: B. Human Whole Blood HTRF Assay
LTC4 synthase catalyzes the conversion of Leukotriene A4 (LTA4) to Leukotriene C4 (LTC4) in the presence of reduced glutathione (GSH) as a co-substrate. For testing the inhibition of LTC4S, compounds are prepared for either eight-point or sixteen-point dose response studies in 384-well Labcyte low dead volume (LDV) plates. For eight-point dose response studies, compounds are diluted 1:5 starting at 1 μM concentration in 90% DMSO. […] Compounds are studied in duplicates. Ten wells are filled with 90% DMSO which correspond to the stimulated and unstimulated control wells. […] The morning of the assay, whole blood is collected from three human donors. Donors must be non-smokers and must not have taken NSAIDs within the 48 hours prior to blood collection. The amount of blood collected per donor depends on the amount of compounds to be tested and the dose response format in which they are to be studied (about 8 mL of whole blood for either 22 compounds in 8-point dose response format or 11 compounds in 16-point dose response format). […] 50 μL of diluted blood are then dispensed into each assay plate well with pre-dispensed compounds and DMSO for the stimulated and unstimulated controls using a Thermo Scientific™ Multidrop™ Combi reagent dispenser, and incubated at 37° C. for 4 hours. Calcium ionophore A23187 is used to induce a rapid increase in intracellular levels of Ca^2+. The Ca^2+ functions as a universal second messenger in various immune cells, such as T cells, B cells and mast cells, and is used to induce degranulation and release of eicosanoids, including LTC4, by cells contained in the whole blood samples. […] All but the unstimulated control wells are subsequently stimulated by dispensing 1 μL of the 0.5 mg/mL calcium ionophore suspension using the Thermo Scientific™ Multidrop™ Combi reagent dispenser. Plates are incubated for 15 minutes at 37° C. Plates are then centrifuged at 300 g for 10 minutes at room temperature to pellet blood cells and stop the reaction. […] Plates are sealed and stored at −80° C.
In order to measure the amount of LTC4 released by cells in the human blood samples during calcium ionophore stimulation, supernatants are analyzed using the Cisbio LTC4 homogeneous time-resolved FRET (HTRF) kit (Cisbio #64LC4PEH). […] Ten serially diluted standard curve solutions are also dispensed in duplicate into each plate as instructed in the protocol. Blank controls and cryptate control wells are also prepared. Then, 5 μL of anti-LTC4-d2 working solution are dispensed into all the wells, but the cryptate control wells. Subsequently, 5 μL of anti-LTC4-Eu3+ cryptate working solution are dispensed into all the wells. Plates are then covered with a lid and incubated at room temperature for one hour with gentle orbital shaking (˜450 rpm). […] HTRF ratios are calculated for each well by dividing the 665 nm intensity by the 620 nm intensity, and multiplying the resulting ratio by 10,000. LTC4 standard curves are interpolated for each plate and used to convert the HTRF ratio readouts into the amount of LTC4 present in each well (in ng/mL). Parametric curve fitting is used to obtain inhibition curves and IC50 values.
As for `Nc1nc(N2CCC3(CCCC(=O)N3c3ccc(F)c(F)c3)CC2)cc(N2C[C@H]3C[C@@H]2CO3)n1` (racemic) [Example 46, rac-9-(2-amino-6-((1R,4R)-2-oxa-5-azabicyclo[2.2.1]heptan-5-yl)pyrimidin-4-yl)-1-(3,4-difluorophenyl)-1,9-diazaspiro[5.5]undecan-2-one], the IC50 amounted to 490 nM.

In the case of `O=C1CCCC2(CCN(c3cc(-n4cc(C(F)(F)F)cn4)nc(CO)n3)CC2)N1c1ccc(F)c(F)c1` (racemic) [Example 67, rac-1-(3,4-difluorophenyl)-9-(2-(1-hydroxymethyl)-6-(4-(trifluoromethyl)-1H-pyrazol-1-yl)pyrimidin-4-yl)1,9-diazaspiro[5.5]undecane-2-one], the half-inhibitory concentration (IC50) was found to be 2 nM.

`CC(Oc1cc(N2CCC3(CCCC(=O)N3c3ccc(F)c(F)c3)CC2)ncn1)C(F)(F)F` (racemic) [Example 86, rac-1-(3,4-dfluorophenyl)-9-(6-((1,1,1-trifluoropropan-2-yl)oxy)pyrimidin-4-yl)-1,9-diazaspiro[5.5]undecan-2-one]: the IC50 came to 2 nM.

Turning to `CC(Oc1cc(N2CCC3(CCCC(=O)N3c3ccc(F)c(F)c3)CC2)nc(N)n1)C(F)(F)F` (racemic) [Example 95, rac-9-(2-amino-6-((1,1,1-trifluoropropan-2-yl)oxy)pyrimidn-4-yl)-1-(3,4-difluorophienyl)-1,9-diazaspiro[5.5]undecan-2-one], the IC50 came to 2 nM.

`CC1(C(Oc2cc(N3CCC4(CCCC(=O)N4c4ccc(F)c(F)c4)CC3)nc(N)n2)C(F)(F)F)COC1` (racemic) [Example 96, rac-9-(2-amino-6-(2,2,2-trifluoro-1-(3-methyloxetan-3-yl)ethoxy)pyrimidin-4-yl)-1-(3,4-difluorophenyl)-1,9-diazaspiro[5.5]undecan-2-one]: the IC50 stood at 3 nM.

`Nc1nc(OC2COCC2(F)F)cc(N2CCC3(CCCC(=O)N3c3ccc(F)c(F)c3)CC2)n1` (racemic) [Example 98, rac-9-(2-amino-6-((4,4-difluorotetrahydrofuran-3-yl)oxy)pyrimidin-4-yl)-1-(3,4-difluorophenyl)-1,9-diazaspiro[5.5]undecan-2-one]: the IC50 was determined as 3 nM.

Turning to `Nc1nc(O[C@H]2CCOC[C@@H]2F)cc(N2CCC3(CCCC(=O)N3c3ccc(F)c(F)c3)CC2)n1` (racemic) [Example 99, rac-9-(2-amino-6-(((3S,4S)-3-fluorotetrahydro-2H-pyran-4-yl)oxy)pyrimidin-4-yl)-1-(3,4-difluorophenyl)-1,9-diazaspiro[5.5]undecan-2-one], the IC50 was determined as 4 nM.

For `Nc1nc(O[C@@H]2COC[C@H]2F)cc(N2CCC3(CCCC(=O)N3c3ccc(F)c(F)c3)CC2)n1` (racemic) [Example 102, rac-9-(2-amino-6-(((3R,4R)-4-fluorotetrahydrofuran-3-yl)oxy)pyrimidin-4-yl)-1-(3,4-difluorophenyl)-1,9-diazaspiro[5.5]undecan-2-one], the concentration for half-maximal inhibition (IC50) was 9 nM.

As to `CC1(Oc2cc(N3CCC4(CCCC(=O)N4c4ccc(F)c(F)c4)CC3)nc(N)n2)CCOC1` (racemic) [Example 104, rac-9-(2-amino-6-((3-methyltetrahydrofuran-3-yl)oxy)pyrimidin-4-yl)-1-(3,4-difluorophenyl)-1,9-diazaspiro[5.5]undecan-2-one], the IC50 turned out to be 5 nM.

`Nc1nc(O[C@H]2COC[C@H]2F)cc(N2CCC3(CCCC(=O)N3c3ccc(F)c(F)c3)CC2)n1` (racemic) [Example 105, rac-9-(2-amino-6-(((3S,4R)-4-fluorotetrahydrofuran-3-yl)oxy)pyrimidin-4-yl)-1-(3,4-difluorophenyl)-1,9-diazaspiro[5.5]undecan-2-one]: the IC50 stood at 6 nM.

For `O=C1CCCC2(CCN(c3cc(O[C@@H]4CCOC[C@@H]4F)nc(CO)n3)CC2)N1c1ccc(F)c(F)c1` (racemic) [Example 107, rac-1-(3,4-difluorophenyl)-9-(6-(((3S,4R)-3-fluorotetrahydro-2H-pyran-4-yl)oxy)-2-(hydroxymethyl)pyrimidin-4-yl)-1,9-diazaspiro[5.5]undecan-2-one], the IC50 turned out to be 6 nM.

The values are drawn from patent US11708366B2, “Heteroaryl substituted spiropiperidinyl derivatives and pharmaceutical uses thereof” (Novartis AG, priority 2020, dated 2023).
